Measurements as given in patent US20260265329A1, “POLYPEPTIDE AND DERIVATIVE THEREOF, COMPOSITION, AND USE THEREOF” (HANGZHOU SCIWIND BIOSCIENCES CO., LTD., priority 2023, published 2026).
Starred links: 1 amine or outer side, 2 acyl side, 3 side chain; linkers in the order of their positions; H or OH if unused. Non-standard residues stand in square brackets, D forms with d. Residues, ends and D or L forms follow the SMILES beside them. ξ: configuration not given here. *: point of attachment. C20 diacid = O=C(O)CCCCCCCCCCCCCCCCCCC(=O)*; γGlu = O=C(O)[C@H](CCC(=O)[*:2])N[*:1]; Hyp = O=C(O)[C@@H]1C[C@@H](O)CN1; ξαMeN = CC(N)(CC(N)=O)C(=O)O

How the values were obtained:
human amylin receptors = target: T1, human amylin receptors (Homo sapiens, UniProt O60896+P30988); test: Luciferase assay in stably transfected amylin receptor/CRE-luc CHO cell line; assay type: cell-based; settings: for Relative activity: EC50 ratio of Cagrilintide to the compound, Cagrilintide 100%; for EC50: amylin receptor/CRE-luc CHO cells, 24 hours incubation, luminescence
T1 construct: host or cells: CHO-K1/Ga15/AMY3 cells, further stably transfected with a CRE-luciferase plasmid
T1 sequence (P30988 25-474): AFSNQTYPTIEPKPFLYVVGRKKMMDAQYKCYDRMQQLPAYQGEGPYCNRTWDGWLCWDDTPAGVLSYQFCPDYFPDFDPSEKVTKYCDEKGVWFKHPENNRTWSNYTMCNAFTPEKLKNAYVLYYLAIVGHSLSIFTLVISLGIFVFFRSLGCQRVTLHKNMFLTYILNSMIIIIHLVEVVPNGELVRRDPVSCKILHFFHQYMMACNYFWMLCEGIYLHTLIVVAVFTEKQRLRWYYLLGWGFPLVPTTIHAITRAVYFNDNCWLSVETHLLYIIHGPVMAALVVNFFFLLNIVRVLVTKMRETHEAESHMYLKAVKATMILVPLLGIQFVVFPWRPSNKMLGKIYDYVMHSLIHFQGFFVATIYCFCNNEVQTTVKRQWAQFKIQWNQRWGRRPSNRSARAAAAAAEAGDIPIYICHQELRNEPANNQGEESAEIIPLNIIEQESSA
T1 sequence (O60896 24-148 partner): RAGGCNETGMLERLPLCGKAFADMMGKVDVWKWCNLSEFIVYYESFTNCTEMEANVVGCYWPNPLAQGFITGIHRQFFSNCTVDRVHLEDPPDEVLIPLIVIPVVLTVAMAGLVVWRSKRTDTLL

[1] = Heat accelerated stability assay, 40° C., detection on 7 d and 28 d; assay type: physicochemical; settings: for Purity from the reversed phase chromatography-214 nm, 0 d / Purity from the reversed phase chromatography-214 nm, 7 d / Purity from the reversed phase chromatography-214 nm, 28 d: 1 mg/mL, pH about 7.4, 40° C.; for Change (7 d − 0 d): purity on 7 d − purity on 0 d; for Change (7 d − 0 d) / Change (28 d − 0 d): 40° C., pH about 7.4; for Change (28 d − 0 d): purity on 28 d − purity on 0 d
Protocol: The derivatives (1 mg/mL) were mixed with sodium dihydrogen phosphate (1.42 mg/mL) and dissolved in ultrapure water. After adjusting pH to about 7.4 with hydrochloric acid/sodium hydroxide, the solution was filtered into a sterilized vial in a clean bench using a 0.22 μm sterile filter. The vial was then capped and placed into the stability test chamber at 40° C. Detections were made on Days 7 (7d) and 28 (28d), and during the assay, changes in the characteristics and properties of the polypeptides were observed and recorded. The sample was then centrifuged for 3 min at 10000 rpm at 4° C., and the supernatant was transferred to a liquid phase sample vial for detecting the concentration and purity of the polypeptides using liquid phase chromatography described as below.
Conditions of the reversed phase chromatography Flow rate: 1.0 mL/min; Autosampler temperature: 15° C.; Column temperature: 25° C.; Detection wavelength: 214 nm; Mobile phase A: 100% H2O+0.05% TFA; Mobile phase B: 100% ACN; and Gradient of elution listed in Table 4: […]

Compound	Relative activity (human amylin receptors) [%]	EC50 (human amylin receptors) [nM]	Purity from the reversed phase chromatography-214 nm, 0 d [1]	Purity from the reversed phase chromatography-214 nm, 7 d [1]	Purity from the reversed phase chromatography-214 nm, 28 d [1]	Change (7 d − 0 d) [1]	Change (28 d − 0 d) [1]	Purity from the reversed phase chromatography-214 nm, 0 d ([1]; in % (unit assumed))	Purity from the reversed phase chromatography-214 nm, 7 d ([1]; in % (unit assumed))	Change (28 d − 0 d) ([1]; in % (unit assumed))
CC[C@H](C)[C@H](NC(=O)[C@@H]1CCCN1C(=O)[C@H](CCCCN)NC(=O)[C@H](CC(C)C)NC(=O)[C@H](CC(N)=O)NC(=O)[C@H](CC(N)=O)NC(=O)[C@H](CO)NC(=O)[C@H](CO)NC(=O)[C@H](Cc1c[nH]cn1)NC(=O)[C@H](CCCNC(=N)N)NC(=O)[C@H](CC(C)C)NC(=O)[C@H](Cc1ccccc1)NC(=O)[C@H](CC(=O)O)NC(=O)[C@H](C)NC(=O)[C@H](CC(C)C)NC(=O)[C@H](CCCNC(=N)N)NC(=O)[C@H](CCC(N)=O)NC(=O)[C@@H](NC(=O)[C@H](C)NC(=O)[C@H](C)NC(=O)[C@@H](NC(=O)[C@H](CO)NC(=O)[C@H](CC(C)C)NC(=O)[C@H](CCC(N)=O)NC(=O)[C@H](CO)NC(=O)[C@H](C)NC(=O)CC[C@H](NC(=O)CCCCCCCCCCCCCCCCCCC(=O)O)C(=O)O)[C@@H](C)O)[C@@H](C)O)C(=O)N[C@@H](CC(C)C)C(=O)N1CCC[C@H]1C(=O)N1CCC[C@H]1C(=O)N[C@H](C(=O)N[C@@H](CC(N)=O)C(=O)N[C@H](C(=O)NCC(=O)N[C@@H](CO)C(=O)N[C@@H](CC(N)=O)C(=O)N[C@H](C(=O)N1C[C@H](O)C[C@H]1C(N)=O)[C@@H](C)O)C(C)C)[C@@H](C)O [M5] ({C20 diacid-γGlu}-ASQLSTAATQRLADFLRHSSNNLKPILPPTNVGSNT[Hyp]-NH2)	84	0.031	92.36	91.35	91.34	−1.01	−1.02			
CC[C@H](C)[C@H](NC(=O)[C@@H]1CCCN1C(=O)[C@H](CCCCN)NC(=O)[C@H](CC(C)C)NC(=O)[C@H](CC(N)=O)NC(=O)[C@H](CC(N)=O)NC(=O)[C@H](CO)NC(=O)[C@H](CO)NC(=O)[C@H](Cc1c[nH]cn1)NC(=O)[C@H](CCCNC(=N)N)NC(=O)[C@H](CC(C)C)NC(=O)[C@H](Cc1ccccc1)NC(=O)[C@H](CC(=O)O)NC(=O)[C@H](C)NC(=O)[C@H](CC(C)C)NC(=O)[C@H](CCCNC(=N)N)NC(=O)CNC(=O)[C@H](CC(C)C)NC(=O)[C@@H](NC(=O)[C@H](C)NC(=O)[C@@H](NC(=O)[C@H](CO)NC(=O)[C@H](CC(C)C)NC(=O)[C@H](CCC(N)=O)NC(=O)[C@H](CO)NC(=O)[C@H](C)NC(=O)CC[C@H](NC(=O)CCCCCCCCCCCCCCCCCCC(=O)O)C(=O)O)[C@@H](C)O)C(C)C)C(=O)N[C@@H](CC(C)C)C(=O)N1CCC[C@H]1C(=O)N1CCC[C@H]1C(=O)N[C@H](C(=O)N[C@@H](CC(N)=O)C(=O)N[C@H](C(=O)NCC(=O)N[C@@H](CO)C(=O)N[C@@H](CC(N)=O)C(=O)N[C@H](C(=O)N1C[C@H](O)C[C@H]1C(N)=O)[C@@H](C)O)C(C)C)[C@@H](C)O [M2] ({C20 diacid-γGlu}-ASQLSTAVLGRLADFLRHSSNNLKPILPPTNVGSNT[Hyp]-NH2)	68	0.038	85.15	85.16	85.44	0.01	0.29			
M10: ASQLSTAVLQRLADFLRHFTDRDRDILPPTNVGSNTP-NH2 (SEQ ID No. 10), N-terminal side chain C20 diacid + γGlu ({C20 diacid-γGlu}-ASQLSTAVLQRLADFLRHFTDRDRDILPPTNVGSNTP-NH2; SMILES CC[C@H](C)[C@H](NC(=O)[C@H](CC(=O)O)NC(=O)[C@H](CCCNC(=N)N)NC(=O)[C@H](CC(=O)O)NC(=O)[C@H](CCCNC(=N)N)NC(=O)[C@H](CC(=O)O)NC(=O)[C@@H](NC(=O)[C@H](Cc1ccccc1)NC(=O)[C@H](Cc1c[nH]cn1)NC(=O)[C@H](CCCNC(=N)N)NC(=O)[C@H](CC(C)C)NC(=O)[C@H](Cc1ccccc1)NC(=O)[C@H](CC(=O)O)NC(=O)[C@H](C)NC(=O)[C@H](CC(C)C)NC(=O)[C@H](CCCNC(=N)N)NC(=O)[C@H](CCC(N)=O)NC(=O)[C@H](CC(C)C)NC(=O)[C@@H](NC(=O)[C@H](C)NC(=O)[C@@H](NC(=O)[C@H](CO)NC(=O)[C@H](CC(C)C)NC(=O)[C@H](CCC(N)=O)NC(=O)[C@H](CO)NC(=O)[C@H](C)NC(=O)CC[C@H](NC(=O)CCCCCCCCCCCCCCCCCCC(=O)O)C(=O)O)[C@@H](C)O)C(C)C)[C@@H](C)O)C(=O)N[C@@H](CC(C)C)C(=O)N1CCC[C@H]1C(=O)N1CCC[C@H]1C(=O)N[C@H](C(=O)N[C@@H](CC(N)=O)C(=O)N[C@H](C(=O)NCC(=O)N[C@@H](CO)C(=O)N[C@@H](CC(N)=O)C(=O)N[C@H](C(=O)N1CCC[C@H]1C(N)=O)[C@@H](C)O)C(C)C)[C@@H](C)O)					93.8%	0.16%		94.73	94.89	−0.93
CC[C@H](C)[C@H](NC(=O)[C@@H]1CCCN1C(=O)[C@H](CCCCN)NC(=O)[C@H](CC(C)C)NC(=O)[C@H](CC(N)=O)NC(=O)[C@H](CC(N)=O)NC(=O)[C@H](CO)NC(=O)[C@H](CO)NC(=O)[C@H](Cc1c[nH]cn1)NC(=O)[C@H](CCCNC(=N)N)NC(=O)[C@H](CC(C)C)NC(=O)[C@H](Cc1ccccc1)NC(=O)[C@H](CC(=O)O)NC(=O)[C@H](C)NC(=O)[C@H](CC(C)C)NC(=O)[C@H](CCCNC(=N)N)NC(=O)[C@H](CCC(N)=O)NC(=O)[C@@H](NC(=O)[C@@H](NC(=O)[C@H](C)NC(=O)[C@@H](NC(=O)[C@H](CO)NC(=O)[C@H](CC(C)C)NC(=O)[C@H](CCC(N)=O)NC(=O)[C@H](CO)NC(=O)[C@H](C)NC(=O)CC[C@H](NC(=O)CCCCCCCCCCCCCCCCCCC(=O)O)C(=O)O)[C@@H](C)O)C(C)C)[C@@H](C)O)C(=O)N[C@@H](CC(C)C)C(=O)N1CCC[C@H]1C(=O)N1CCC[C@H]1C(=O)N[C@H](C(=O)N[C@@H](CC(N)=O)C(=O)N[C@H](C(=O)NCC(=O)N[C@@H](CO)C(=O)N[C@@H](CC(N)=O)C(=O)N[C@H](C(=O)N1C[C@H](O)C[C@H]1C(N)=O)[C@@H](C)O)C(C)C)[C@@H](C)O [M7] ({C20 diacid-γGlu}-ASQLSTAVTQRLADFLRHSSNNLKPILPPTNVGSNT[Hyp]-NH2)	39	0.066	93	91.39	91.53	−1.61	−1.47			
CC[C@H](C)[C@H](NC(=O)[C@@H]1CCCN1C(=O)[C@H](CCCCN)NC(=O)[C@H](CC(C)C)NC(=O)C(C)(CC(N)=O)NC(=O)[C@H](CC(N)=O)NC(=O)[C@H](CO)NC(=O)[C@H](CO)NC(=O)[C@H](Cc1c[nH]cn1)NC(=O)[C@H](CCCNC(=N)N)NC(=O)[C@H](CC(C)C)NC(=O)[C@H](Cc1ccccc1)NC(=O)[C@H](CC(=O)O)NC(=O)[C@H](C)NC(=O)[C@H](CC(C)C)NC(=O)[C@H](CCCNC(=N)N)NC(=O)[C@H](CCC(N)=O)NC(=O)[C@@H](NC(=O)[C@H](C)NC(=O)[C@H](C)NC(=O)[C@@H](NC(=O)[C@H](CO)NC(=O)[C@H](CC(C)C)NC(=O)[C@H](CCC(N)=O)NC(=O)[C@H](CO)NC(=O)[C@H](C)NC(=O)CC[C@H](NC(=O)CCCCCCCCCCCCCCCCCCC(=O)O)C(=O)O)[C@@H](C)O)[C@@H](C)O)C(=O)N[C@@H](CC(C)C)C(=O)N1CCC[C@H]1C(=O)N1CCC[C@H]1C(=O)N[C@H](C(=O)N[C@@H](CC(N)=O)C(=O)N[C@H](C(=O)NCC(=O)N[C@@H](CO)C(=O)N[C@@H](CC(N)=O)C(=O)N[C@H](C(=O)N1C[C@H](O)C[C@H]1C(N)=O)[C@@H](C)O)C(C)C)[C@@H](C)O (stereo partly drawn) [M55] ({C20 diacid-γGlu}-ASQLSTAATQRLADFLRHSSN[ξαMeN]LKPILPPTNVGSNT[Hyp]-NH2)	233									
